In publication PMC8795197, “Safety and activity of WX-0593 (Iruplinalkib) in patients with ALK- or ROS1-rearranged advanced non-small cell lung cancer: a phase 1 dose-escalation and dose-expansion trial” (Signal Transduction and Targeted Therapy, 2022):
Read-outs that look alike come from different tables or passages of the source.

Tests used:
[1] = tested on: NSCLC patients with ALK or ROS1 rearrangement; conditions: ALK-rearranged patients; cited from earlier work
[2] = tested on: patients treated with ALK TKIs; conditions: cited from earlier work
Ba/F3 ALK-G1269A = test: Growth of transfected Ba/F3 cells (CellTiter-Glo, 3 days); assay type: cell-based; conditions: Mus musculus, BaF3; ALK-G1269A; read-out: IC50
Protocol: (§1) Harvest cells during the logarithmic growth period and count cells using blood counting chamber. Adjust cell concentration with culture medium. Add 90µl cell suspensions to two 96-well plates to the final cell density as described before. Incubate the plate overnight in humidified incubator at 37℃ with 5% CO2. Dispense 10µl drug solution (10×) to each well (triplicate for each concentration), and the DMSO final concentration in culture medium is 0.1% [v/v]. Culture the plates for 3 days. On Day 3, Read luminescent using Multi Label Reader. The software of GraphPad Prism was used to calculate IC50. The graphical curves were fitted using a nonlinear regression model with a sigmoidal dose response.

Ba/F3 ALK-V1180L = test: as above; assay type: cell-based; conditions: Mus musculus, BaF3; ALK-V1180L; read-out: IC50
Protocol: as §1

Ba/F3 ALK-L1196M = test: as above; assay type: cell-based; conditions: Mus musculus, BaF3; ALK-L1196M; read-out: IC50
Protocol: as §1

Ba/F3 ALK-F1174V = test: as above; assay type: cell-based; conditions: Mus musculus, BaF3; ALK-F1174V; read-out: IC50
Protocol: as §1

Ba/F3 ALK-I1171T = test: as above; assay type: cell-based; conditions: Mus musculus, BaF3; ALK-I1171T; read-out: IC50
Protocol: as §1

Ba/F3 ALK-G1202del = test: as above; assay type: cell-based; conditions: Mus musculus, BaF3; ALK-G1202del; read-out: IC50
Protocol: as §1

Ba/F3 ALK-F1174L = test: as above; assay type: cell-based; conditions: Mus musculus, BaF3; ALK-F1174L; read-out: IC50
Protocol: as §1

Ba/F3 ALK-T1151Tins = test: as above; assay type: cell-based; conditions: Mus musculus, BaF3; ALK-T1151Tins; read-out: IC50
Protocol: as §1

Ba/F3 ALK-I1171N = test: as above; assay type: cell-based; conditions: Mus musculus, BaF3; ALK-I1171N; read-out: IC50
Protocol: as §1

Ba/F3 ALK-F1174C = test: as above; assay type: cell-based; conditions: Mus musculus, BaF3, ALK-F1174C, read-out: IC50
Protocol: as §1

Ba/F3 ALK-WT = test: as above; assay type: cell-based; conditions: Mus musculus, BaF3; ALK-WT; read-out: IC50
Protocol: as §1

Ba/F3 ALK-L1152P = test: as above; assay type: cell-based; conditions: Mus musculus, BaF3; ALK-L1152P; read-out: IC50
Protocol: as §1

Ba/F3 ALK-I1171S = test: as above; assay type: cell-based; conditions: Mus musculus, BaF3, ALK-I1171S, read-out: IC50
Protocol: as §1

Ba/F3 ALK-G1202R = test: as above; assay type: cell-based; conditions: Mus musculus, BaF3; ALK-G1202R; read-out: IC50
Protocol: as §1

Ba/F3 ALK-L1152R = test: as above; assay type: cell-based; conditions: Mus musculus, BaF3; ALK-L1152R; read-out: IC50
Protocol: as §1

Ba/F3 ALK-C1156Y = test: as above; assay type: cell-based; conditions: Mus musculus, BaF3; ALK-C1156Y; read-out: IC50
Protocol: as §1

LU-01-0319R NSCLC PDX = test: PDX model resistant to crizotinib; assay type: in vivo; conditions: WX-0593 2.5, 5, 10 mg/kg; ceritinib 10/20 mg/kg; brigatinib 10 mg/kg
Ba/F3 SLC34A2-ROS1 = test: Growth of transfected Ba/F3 cells (CellTiter-Glo, 3 days); assay type: cell-based; conditions: Mus musculus, BaF3
Protocol: as §1, with “days.On” for “days. On”

[3] = tested on: Ba/F3 SLC34A2-ROS1-L2026M; test: as above; assay type: cell-based; conditions: Mus musculus, BaF3
Protocol: as §1, with “days.On” for “days. On”

Ba/F3 CD74-ROS1-S1986Y = test: as above; assay type: cell-based; conditions: Mus musculus, BaF3
Protocol: as §1, with “days.On” for “days. On”

Ba/F3 CD74-ROS1-D2033N = test: as above; assay type: cell-based; conditions: Mus musculus, BaF3
Protocol: as §1, with “days.On” for “days. On”

Ba/F3 CD74-ROS1-L1951R = test: as above; assay type: cell-based; conditions: Mus musculus, BaF3
Protocol: as §1, with “days.On” for “days. On”

[4] = tested on: Ba/F3 SLC34A2-ROS1-G2032R; test: as above; assay type: cell-based; conditions: Mus musculus, BaF3
Protocol: as §1, with “days.On” for “days. On”

Ba/F3 CD74-ROS1-S1986F = test: as above; assay type: cell-based; conditions: Mus musculus, BaF3
Protocol: as §1, with “days.On” for “days. On”

[5] = Grades 1 and 2 adverse reactions

Row | IC50 (Ba/F3 SLC34A2-ROS1) | IC50 [3] | IC50 (Ba/F3 CD74-ROS1-D2033N) | IC50 (Ba/F3 CD74-ROS1-L1951R) | IC50 [4] | SMILES | ORR [1] | IC50 (Ba/F3 ALK-G1269A) | IC50 (Ba/F3 ALK-V1180L) | IC50 (Ba/F3 ALK-L1196M) | IC50 (Ba/F3 ALK-F1174V) | IC50 (Ba/F3 ALK-I1171T) | IC50 (Ba/F3 ALK-G1202del) | IC50 (Ba/F3 ALK-F1174L) | IC50 (Ba/F3 ALK-T1151Tins) | IC50 (Ba/F3 ALK-I1171N) | IC50 (Ba/F3 ALK-F1174C; first listing (r10)) | IC50 (Ba/F3 ALK-F1174C; second listing (r15)) | IC50 (Ba/F3 ALK-WT) | IC50 (Ba/F3 ALK-L1152P) | IC50 (Ba/F3 ALK-I1171S; first listing (r12)) | other results
1 | 8 nM | 162 nM | […] | […] | […] | C[C@@H](Oc1cc(-c2cnn(C3CCNCC3)c2)cnc1N)c1c(Cl)ccc(F)c1Cl [Crizotinib] | – | – | – | – | – | – | – | – | – | – | – | – | – | – | – | anti-tumor effect (LU-01-0319R NSCLC PDX): resistant
2 | 49 nM | 278 nM | 195 nM | 970 nM | 1640 nM | C[C@@H]1CN(C(=O)c2ccc(NC(=O)c3cc(O[C@H](C)c4c(Cl)ccc(F)c4Cl)c(N)nn3)cc2)C[C@H](C)N1 [Ensartinib] | 60% | 212 nM | 16.6 nM | 98 nM | 54.5 nM | 28 nM | 932 nM | 29 nM | 42 nM | 18.4 nM | 62 nM | 62.2 nM | 14 nM | 25.7 nM | 39 nM | rash, % of patients [2]: 56%; IC50 (Ba/F3 ALK-I1171S; second listing (r19)): 41.5 nM; IC50 (Ba/F3 ALK-G1202R): 409 nM; IC50 (Ba/F3 ALK-L1152R): 71.4 nM; IC50 (Ba/F3 ALK-C1156Y): 17 nM; IC50 (Ba/F3 CD74-ROS1-S1986Y): 189 nM; IC50 (Ba/F3 CD74-ROS1-S1986F): 192 nM

Row | SMILES | IC50 (Ba/F3 SLC34A2-ROS1) | IC50 [3] | IC50 (Ba/F3 CD74-ROS1-D2033N) | IC50 (Ba/F3 CD74-ROS1-L1951R) | IC50 [4] | ORR [1] | IC50 (Ba/F3 ALK-G1269A) | IC50 (Ba/F3 ALK-V1180L) | IC50 (Ba/F3 ALK-L1196M) | IC50 (Ba/F3 ALK-F1174V) | IC50 (Ba/F3 ALK-I1171T) | IC50 (Ba/F3 ALK-G1202del) | IC50 (Ba/F3 ALK-F1174L) | IC50 (Ba/F3 ALK-T1151Tins) | IC50 (Ba/F3 ALK-I1171N) | IC50 (Ba/F3 ALK-F1174C; first listing (r10)) | IC50 (Ba/F3 ALK-F1174C; second listing (r15)) | IC50 (Ba/F3 ALK-WT) | IC50 (Ba/F3 ALK-L1152P) | IC50 (Ba/F3 ALK-I1171S; first listing (r12)) | other results
3 | Cc1cc(Nc2ncc(Cl)c(Nc3ccccc3S(=O)(=O)C(C)C)n2)c(OC(C)C)cc1C1CCNCC1 [Ceritinib] | 14 nM | 54 nM | 159 nM | 642 nM | 1100 nM | 58% | 16 nM | 15.6 nM | 33 nM | 53.7 nM | 27.8 nM | 925 nM | 21 nM | 96 nM | 41.8 nM | 95 nM | 79.5 nM | 13 nM | 71.5 nM | 97 nM | ALT increased [2, 5]: 35%; diarrhea [2, 5]: 75%; fatigue [2, 5]: 47%; nausea [2, 5]: 82%; vomiting [2, 5]: 65%; diarrhea, % of patients [2]: 75%; dose reduction due to TEAEs, % of patients [2]: 62%; IC50 (Ba/F3 ALK-I1171S; second listing (r19)): 45.8 nM; IC50 (Ba/F3 ALK-G1202R): 502 nM; IC50 (Ba/F3 ALK-L1152R): 116 nM; IC50 (Ba/F3 ALK-C1156Y): 87 nM; anti-tumor effect (LU-01-0319R NSCLC PDX): significant effects against crizotinib-induced resistance; IC50 (Ba/F3 CD74-ROS1-S1986Y): 32.5 nM; IC50 (Ba/F3 CD74-ROS1-S1986F): 49.6 nM
